How the values were obtained:
mTmG = assay: In vivo efficacy, mTmG syngeneic mouse model; conditions: in combination with a PD1/PD-L1 inhibitor; data not shown
Experimental: (§1) A program of in vivo efficacy studies was performed to assess the activity of SRA737 in combination with genotoxic chemotherapy and targeted agents, and as monotherapy.
(§2) One of these models also carried a MYCN amplification. A fourth HGSOC PDX model with partial resistance to PARPi was also sensitive to high dose SRA737 monotherapy.

LL/2 (lung cancer) = assay: In vivo efficacy, LL/2 syngeneic model; design: species or system mouse; conditions: data not shown
Experimental: as §1, §2

Single dose PK, mouse = assay type: in vivo
Experimental: (§3) The PK of SRA737 have been determined in the mouse, rat, dog and monkey following oral and IV administration (Table 3). […] An acceptable terminal elimination t1/2 was also observed in each species. […] The plasma protein binding of SRA737 at 1 and 10 μM was examined in mouse, minipig, monkey and human plasma using ultracentrifugation and in dog plasma (10 μM) using rapid equilibrium dialysis.

Single dose PK, rat = assay type: in vivo
Experimental: as §3

CYP 1A2 = CYP 1A2 (Homo sapiens, UniProt P05177); assay: CYP inhibition, 1A2; assay type: in vitro ADME; conditions: highest concentration investigated
CYP 2D6 = CYP 2D6 (Homo sapiens, UniProt P10635); assay: CYP inhibition, 2D6; assay type: in vitro ADME; conditions: highest concentration investigated
[1] = Phase 1 clinical trial, SRA737 monotherapy dose escalation; assay type: in vivo, human; conditions: for AUC(0-t): AUC0-24
Experimental: A Phase 1 clinical trial was conducted in ‘all comers,’ i.e. no genetic selection was performed, to establish safety, tolerability and pharmacokinetics (“Dose Escalation Phase”). Cohorts consisting initially of a single subject received escalating doses of SRA737, starting in Cohort 1 with 20 mg/day administered orally on a continuous daily dosing schedule in 28 day cycles. the dose was escalated until the maximum tolerated dose (MTD) was identified.
In the Dose Escalation Phase, 18 subjects received SRA737 in 9 dose level cohorts, from 20 to 1300 mg QD; median treatment duration 62.5 days (range 1 to 226). […] Two of 3 subjects experienced DLTs at the 1300 mg once daily dose, each being an inability to receive 75% of the planned SRA737 dose due to GI intolerability, with the individual GI effects being low grade. […] A cohort receiving 500 mg twice daily was added to determine if a twice daily dosing schedule can improve GI tolerability, given the half-life of SRA737 is approximately 10 hours. One of 6 subjects experienced DLTs in the 500 mg twice daily cohort; this was an inability to receive 75% of the planned SRA737 dose due to grade 4 thrombocytopenia with grade 3 neutropenia and anemia.
Cmin was calculated at 1000 mg QD (411 ng/mL) and exceeded that determined in preclinical models to be effective. Doses≥300 mg QD also exceeded the preclinical models to be effective.

[2] = Phase 1 clinical trial, SRA737 in combination with gemcitabine dose escalation; assay type: in vivo; conditions: human, plasma, oral, 20 mg, Day −7, mean, n = 8-10
[3] = GLP 28-day repeat oral dose toxicity and toxicokinetics, mouse
[4] = in vivo, Mouse IV 10 mg/kg single dose
[5] = in vivo, Mouse oral 10 mg/kg single dose
[6] = in vivo, Rat IV 5 mg/kg single dose
[7] = in vivo, Rat oral 10 mg/kg single dose
[8] = female, mouse, in vivo, po, 10 mg/kg/day
[9] = female, mouse, in vivo, po, 40 mg/kg/day
[10] = female, mouse, in vivo, po, 75 mg/kg/day
[11] = male, mouse, in vivo, po, 10 mg/kg/day
[12] = male, mouse, in vivo, po, 40 mg/kg/day
[13] = male, mouse, in vivo, po, 75 mg/kg/day

Chain of CYP 2D6 (P10635 whole entry): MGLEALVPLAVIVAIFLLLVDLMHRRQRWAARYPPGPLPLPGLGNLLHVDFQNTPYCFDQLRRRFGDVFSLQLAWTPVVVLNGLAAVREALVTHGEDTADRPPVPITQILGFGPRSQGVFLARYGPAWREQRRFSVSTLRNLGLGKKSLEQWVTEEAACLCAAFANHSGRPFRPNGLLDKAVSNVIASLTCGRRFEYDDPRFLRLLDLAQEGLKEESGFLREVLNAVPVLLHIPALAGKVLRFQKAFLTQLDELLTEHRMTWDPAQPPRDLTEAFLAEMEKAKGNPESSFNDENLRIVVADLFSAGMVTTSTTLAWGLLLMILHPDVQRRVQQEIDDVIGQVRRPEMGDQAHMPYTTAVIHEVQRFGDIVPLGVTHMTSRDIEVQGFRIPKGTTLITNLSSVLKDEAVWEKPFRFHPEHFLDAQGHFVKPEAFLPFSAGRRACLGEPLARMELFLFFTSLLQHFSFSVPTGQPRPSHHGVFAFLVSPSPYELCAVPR
Chain of CYP 1A2 (P05177 whole entry): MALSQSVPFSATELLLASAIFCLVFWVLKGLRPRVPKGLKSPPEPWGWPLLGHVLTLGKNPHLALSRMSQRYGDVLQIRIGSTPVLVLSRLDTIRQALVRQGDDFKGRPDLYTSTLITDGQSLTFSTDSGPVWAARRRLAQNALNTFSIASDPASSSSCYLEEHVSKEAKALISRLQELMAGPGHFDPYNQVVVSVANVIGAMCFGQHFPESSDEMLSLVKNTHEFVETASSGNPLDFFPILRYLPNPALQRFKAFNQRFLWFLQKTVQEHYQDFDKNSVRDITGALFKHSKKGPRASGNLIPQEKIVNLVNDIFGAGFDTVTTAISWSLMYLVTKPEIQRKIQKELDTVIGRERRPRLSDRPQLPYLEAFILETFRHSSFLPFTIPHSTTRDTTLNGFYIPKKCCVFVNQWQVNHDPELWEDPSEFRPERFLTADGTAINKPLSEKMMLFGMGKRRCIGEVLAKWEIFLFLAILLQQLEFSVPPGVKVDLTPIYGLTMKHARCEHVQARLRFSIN

**Q.** What does the source list for `N#Cc1cnc(Nc2cc(NCC3CNCCO3)c(C(F)(F)F)cn2)cn1` (stereo not shown) [SRA737, 5-[[4-[[morpholin-2-yl]methylamino]-5-(trifluoromethyl)-2-pyridyl]amino]pyrazine-2-carbonitrile]?
**A.** antitumor activity (mTmG): Significant antitumor activity; single agent efficacy (LL/2 (lung cancer)): single agent efficacy; Foral (Single dose PK, mouse; Mouse oral 10 mg/kg single dose): 105%; AUC(0-t) (Single dose PK, mouse; [4]): 3770 ng·h/mL; half-life (Single dose PK, mouse; [4]): 2.9 h; AUC(0-t) (Single dose PK, mouse; [5]): 3940 ng·h/mL; Cmax (Single dose PK, mouse; [5]): 610 ng/mL; Tmax (Single dose PK, mouse; [5]): 1 h; half-life (Single dose PK, mouse; [5]): 2.8 h; Foral (Single dose PK, rat; Rat oral 10 mg/kg single dose): 42%; AUC(0-t) (Single dose PK, rat; [6]): 1380 ng·h/mL; half-life (Single dose PK, rat; [6]): 1 h; AUC(0-t) (Single dose PK, rat; [7]): 1170 ng·h/mL; Cmax (Single dose PK, rat; [7]): 190 ng/mL; Tmax (Single dose PK, rat; [7]): 2 h; half-life (Single dose PK, rat; [7]): 4.6 h; IC50 (CYP 1A2): 10 to 50 µM; IC50 (CYP 2D6): 10 to 50 µM; maximum tolerated dose (MTD) ([1]; BID): 500 mg; maximum tolerated dose (MTD) ([1]; QD, continuous daily oral dosing): 1000 mg; dose-limiting toxicities (DLTs) ([1]; human, in vivo): without any dose-limiting toxicities; doses that exceeded the level determined in preclinical models to be effective ([1]; human, in vivo): ≥ 300 mg; Cmax ([1]; human, in vivo, 20 mg): 29.0 ng/mL; Cmax ([1]; human, in vivo, 20 mg, Cmax): 43 ng/mL; half-life ([1]; human, in vivo, 20 mg, T1/2): 17.6 h; AUC0-24 ([1]; human, in vivo, 40 mg): 1,006 ng · h/mL; Cmax ([1]; human, in vivo, 40 mg): 75.9 ng/mL; T1/2 ([1]; human, in vivo, 40 mg): 16.8 h; Tmax ([1]; human, in vivo, 40 mg): 2.0 h; AUC(0-t) ([1]; human, in vivo, 40 mg): 809 ng·h/mL; Cmax ([1]; human, in vivo, 40 mg, Cmax): 95 ng/mL; half-life ([1]; human, in vivo, 40 mg, T1/2): 9.85 h; Tmax ([1]; human, in vivo, 40 mg, Tmax): 1 h; AUC0-24 ([1]; human, in vivo, 80 mg): 1,064 ng · h/mL; Cmax ([1]; human, in vivo, 80 mg): 81.4 ng/mL; T1/2 ([1]; human, in vivo, 80 mg): 15.6 h; Tmax ([1]; human, in vivo, 80 mg): 2.0 h; AUC(0-t) ([1]; human, in vivo, 80 mg): 691 ng·h/mL; Cmax ([1]; human, in vivo, 80 mg, Cmax): 68.9 ng/mL; half-life ([1]; human, in vivo, 80 mg, T1/2): 9.27 h; Tmax ([1]; human, in vivo, 80 mg, Tmax): 4 h; AUC0-24 ([1]; human, in vivo, 160 mg): 2,515 ng · h/mL; Cmax ([1]; human, in vivo, 160 mg): 217 ng/mL; T1/2 ([1]; human, in vivo, 160 mg): 19.8 h; Tmax ([1]; human, in vivo, 160 mg): 2.0 h; AUC(0-t) ([1]; human, in vivo, 160 mg): 1620 ng·h/mL; Cmax ([1]; human, in vivo, 160 mg, Cmax): 178 ng/mL; half-life ([1]; human, in vivo, 160 mg, T1/2): 13.8 h; Tmax ([1]; human, in vivo, 160 mg, Tmax): 4 h; AUC0-24 ([1]; human, in vivo, 300 mg): 2,362 ng · h/mL; T1/2 ([1]; human, in vivo, 300 mg): 15.4 h; Tmax ([1]; human, in vivo, 300 mg): 6.0 h; AUC(0-t) ([1]; human, in vivo, 300 mg): 3150 ng·h/mL; half-life ([1]; human, in vivo, 300 mg, T1/2): 8.59 h; Tmax ([1]; human, in vivo, 300 mg, Tmax): 4 h; AUC0-24 ([1]; human, in vivo, 600 mg): 12,850 ng · h/mL; Cmax ([1]; human, in vivo, 600 mg): 1,381 ng/mL; T1/2 ([1]; human, in vivo, 600 mg): 10.4 h; Tmax ([1]; human, in vivo, 600 mg): 2.9 h; AUC(0-t) ([1]; human, in vivo, 600 mg): 8870 ng·h/mL; Cmax ([1]; human, in vivo, 600 mg, Cmax): 998 ng/mL; half-life ([1]; human, in vivo, 600 mg, T1/2): 12.9 h; Tmax ([1]; human, in vivo, 600 mg, Tmax): 1.8 h; AUC0-24 ([1]; human, in vivo, 800 mg): 25,423 ng · h/mL; Cmax ([1]; human, in vivo, 800 mg): 2,573 ng/mL; T1/2 ([1]; human, in vivo, 800 mg): 10.0 h; Tmax ([1]; human, in vivo, 800 mg): 2.5 h; AUC(0-t) ([1]; human, in vivo, 800 mg): 18900 ng·h/mL; Cmax ([1]; human, in vivo, 800 mg, Cmax): 1980 ng/mL; half-life ([1]; human, in vivo, 800 mg, T1/2): 10.3 h; Tmax ([1]; human, in vivo, 800 mg, Tmax): 3.3 h; T1/2 ([1]; human, in vivo, 1000 mg): 9.38 h; Tmax ([1]; human, in vivo, 1000 mg): 3.1 h; AUC(0-t) ([1]; human, in vivo, 1000 mg): 26800 ng·h/mL; Cmax ([1]; human, in vivo, 1000 mg, Cmax): 2390 ng/mL; half-life ([1]; human, in vivo, 1000 mg, T1/2): 11 h; Tmax ([1]; human, in vivo, 1000 mg, Tmax): 3.3 h; AUC(0-t) ([1]; human, in vivo, 1300 mg): 29800 ng·h/mL; Cmax ([1]; human, in vivo, 1300 mg, Cmax): 3230 ng/mL; half-life ([1]; human, in vivo, 1300 mg, T1/2): 11.8 h; Tmax ([1]; human, in vivo, 1300 mg, Tmax): 2.7 h; half-life ([1]; human, in vivo, half-life): ~10 h; Cmax [2]: 31.3 ng/mL; Tmax [2]: 1.9 h; AUC(0-t) [3, 8]: 3610 ng·h/mL; Cmax [3, 8]: 918 ng/mL; half-life [3, 8]: 5.18 h; AUC(0-t) [3, 9]: 24800 ng·h/mL; Cmax at 28 days [3, 9]: 2350 ng/mL; half-life [3, 9]: 5.09 h; AUC(0-t) [3, 10]: 45500 ng·h/mL; Cmax [3, 10]: 4030 ng/mL; half-life [3, 10]: 6.96 h; AUC(0-t) [3, 11]: 4410 ng·h/mL; Cmax [3, 11]: 903 ng/mL; AUC(0-t) [3, 12]: 34300 ng·h/mL; Cmax at 28 days [3, 12]: 3250 ng/mL; half-life [3, 12]: 6.22 h; AUC(0-t) [3, 13]: 68600 ng·h/mL; Cmax [3, 13]: 5450 ng/mL; half-life [3, 13]: 8.36 h; toxicological findings ([3]; mouse pivotal study, dose-dependent, reversible on cessation): bone marrow toxicity; MTD at 28 days ([3]; mouse, in vivo, po): 75 mg/kg/day

— patent US20200397796A1, “METHODS OF TREATMENT OF CANCER COMPRISING CHK1 INHIBITORS” (SIERRA ONCOLOGY, INC., priority 2018, published 2020)
